The values that follow come from patent US7638508B2, “Glucocorticosteroid compound having anti-inflammatory activity” (Glaxo Group Limited, priority 2003, dated 2009).

Some results are limits rather than exact numbers.

Holding throughout (assay type): cell-based
For test [1], the target named is T1, glucocorticoid receptor (Homo sapiens, UniProt P04150).
T1 sequence (P04150 1-777): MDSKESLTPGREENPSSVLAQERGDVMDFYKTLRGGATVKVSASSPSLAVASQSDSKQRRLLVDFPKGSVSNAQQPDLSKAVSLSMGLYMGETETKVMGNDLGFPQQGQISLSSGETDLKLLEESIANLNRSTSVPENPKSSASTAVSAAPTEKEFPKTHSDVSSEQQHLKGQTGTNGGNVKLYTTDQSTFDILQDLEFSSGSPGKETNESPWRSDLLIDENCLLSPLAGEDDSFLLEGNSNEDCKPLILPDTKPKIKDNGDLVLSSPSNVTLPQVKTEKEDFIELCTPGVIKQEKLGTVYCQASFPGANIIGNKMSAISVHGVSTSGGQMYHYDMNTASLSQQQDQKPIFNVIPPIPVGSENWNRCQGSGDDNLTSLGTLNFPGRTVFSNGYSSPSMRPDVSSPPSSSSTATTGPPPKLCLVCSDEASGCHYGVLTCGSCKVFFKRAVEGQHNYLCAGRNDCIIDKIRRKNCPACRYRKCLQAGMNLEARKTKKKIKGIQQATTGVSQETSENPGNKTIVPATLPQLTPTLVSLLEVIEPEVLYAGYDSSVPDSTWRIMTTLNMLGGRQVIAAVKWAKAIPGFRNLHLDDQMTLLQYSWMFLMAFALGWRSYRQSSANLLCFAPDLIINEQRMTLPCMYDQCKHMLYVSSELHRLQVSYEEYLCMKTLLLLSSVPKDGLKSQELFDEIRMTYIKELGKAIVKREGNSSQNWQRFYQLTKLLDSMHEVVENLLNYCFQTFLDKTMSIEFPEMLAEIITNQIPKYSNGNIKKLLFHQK
Nature of the test: MMTV-LTR renilla luciferase reporter assay in A549 cells (direct transactivation of gene expression). The note with it: 6 hour at 37° C., read-out: maximal response relative to Dexamethasone (100%). On the procedure:
(§1) Pharmacological activity may be assessed in functional in vitro assays of glucocorticoid agonist activity.
The functional assay based on that described by R. J. H. Austin et al., Eur Resp J. (2002), 20, 1386-1392 measures the ability of compounds to directly transactivate gene expression. A549 cells stably transfected with a reporter gene containing the glucocorticoid responsive region of the mouse mammary tumour virus long terminal repeat (MMTV-LTR) coupled to renilla luciferase were treated with test compounds at appropriate doses for 6 hour at 37° C. The amount of luciferase activity present within the cells is then determined by measuring the light emitted following incubation with a suitable substrate.

The target in a further test is T2, Progesterone Receptor (Homo sapiens, UniProt P06401).
T2 construct: The human breast cancer cell line T47D has been reported to upregulate an endogenous alkaline phosphatase in response to progestins; endogenous in cells; host or cells: T47D cells
T2 sequence (P06401 1-933): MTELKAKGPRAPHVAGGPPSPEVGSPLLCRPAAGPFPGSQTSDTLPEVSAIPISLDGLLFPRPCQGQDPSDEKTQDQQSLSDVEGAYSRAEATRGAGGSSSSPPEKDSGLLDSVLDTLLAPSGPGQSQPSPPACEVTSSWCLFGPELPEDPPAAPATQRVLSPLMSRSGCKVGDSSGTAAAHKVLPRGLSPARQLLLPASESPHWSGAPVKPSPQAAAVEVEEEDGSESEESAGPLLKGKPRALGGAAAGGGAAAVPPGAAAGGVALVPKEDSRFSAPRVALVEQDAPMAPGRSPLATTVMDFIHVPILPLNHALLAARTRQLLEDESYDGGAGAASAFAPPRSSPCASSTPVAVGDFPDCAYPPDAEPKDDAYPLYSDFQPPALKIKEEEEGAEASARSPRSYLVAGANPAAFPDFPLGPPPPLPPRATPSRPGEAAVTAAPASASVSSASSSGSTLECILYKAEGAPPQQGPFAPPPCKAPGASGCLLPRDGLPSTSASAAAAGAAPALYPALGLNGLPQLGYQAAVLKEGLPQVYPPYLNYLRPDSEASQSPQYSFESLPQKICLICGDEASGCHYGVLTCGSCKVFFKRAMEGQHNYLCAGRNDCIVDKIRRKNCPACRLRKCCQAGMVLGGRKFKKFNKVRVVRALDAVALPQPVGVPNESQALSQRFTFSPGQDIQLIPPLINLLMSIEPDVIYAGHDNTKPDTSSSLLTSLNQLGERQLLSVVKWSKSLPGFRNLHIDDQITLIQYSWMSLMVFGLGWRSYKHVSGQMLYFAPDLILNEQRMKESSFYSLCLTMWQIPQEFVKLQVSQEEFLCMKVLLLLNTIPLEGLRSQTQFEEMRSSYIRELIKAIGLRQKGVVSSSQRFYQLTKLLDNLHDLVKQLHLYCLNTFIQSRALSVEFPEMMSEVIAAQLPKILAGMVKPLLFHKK
Nature of the test: Assay for Progesterone Receptor Activity: alkaline phosphatase upregulation in T47D cells. The conditions noted are these: 24 hours at 37° C. The protocol:
Assay for Progesterone Receptor Activity
The human breast cancer cell line T47D has been reported to upregulate an endogenous alkaline phosphatase in response to progestins (Di Lorenzo et al., Cancer Research (1991) 51, 4470-4475. T47D cells were seeded into 96 well plates at a density of 1×10^5 cells per well and grown overnight at 37° C. Steroids were dissolved in DMSO, added to the cells (final DMSO concentration 0.7%), and incubated for 24 hours at 37° C. The cells were then washed with PBS and lysed with RIPA buffer (1% IGEPAL, 0.5% Na deoxycholate, 0.1% SDS in phosphate buffered saline). Alkaline phosphatase activity was measured spectrophotometrically (405 nm) using p-nitrophenylphosphate (1.5 mg/ml) as a substrate dissolved in 1 M diethanolamine, 0.28M NaCl, 0.5 mM MgCl2. Dose response curves were constructed from which EC50 values were estimated.

For test [2], the target named is T1, glucocorticoid receptor. In words: NF-κB/ELAM promoter sPAP reporter assay in A549 cells, TNF stimulated (transrepressive activity of a glucocorticoid agonist). Set-up: A549 cells stably transfected with a reporter gene containing the NF-κB responsive elements; endogenous in cells; host or cells: A549 cells. The note with it: compound 1 hour at 37° C., then TNF 10 ng/ml for 16 hours, read-out: EC50 (transrepression, NF-κB sPAP reporter). The protocol:
as §1
The functional assay based on that described by K. P. Ray et al., Biochem J. (1997), 328, 707-715 provides a measure of transrepressive activity of a glucocorticoid agonist. A549 cells stably transfected with a reporter gene containing the NF-κB responsive elements from the ELAM gene promoter coupled to sPAP (secreted alkaline phosphatase) are treated with test compounds at appropriate doses for 1 hour at 37° C. The cells are then stimulated with tumour necrosis factor (TNF, 10 ng/ml) for 16 hours, at which time the amount of alkaline phosphatase produced is measured by a standard colourimetric assay. Dose response curves are constructed from which EC50 values may be estimated.

For the compound `C[C@@H]1C[C@H]2[C@@H]3C[C@H](F)C4=CC(=O)C=C[C@]4(C)[C@@]3(F)[C@@H](O)C[C@]2(C)[C@@]1(OC(=O)C1C(C)(C)C1(Cl)Cl)C(=O)OCC#N` (stereo partly drawn) [Example 20, 17α-(2,2-Dichloro-3,3-dimethylclopropylcarbonyl)oxy-6α,9α-difluoro-11β-hydroxy-16α-methyl-3-oxo-androsta-1,4-diene-17β-carboxylic Acid Cyanomethyl Ester], the Emax at glucocorticoid receptor [1] was less than 35%. The EC50 (as a rule, the concentration at which the effect is half-maximal) on Progesterone Receptor is more than 100 nM; on glucocorticoid receptor [2] it was not above 0.1 nM.
On to `CSc1ccc(C(=O)O[C@]2(C(=O)OCC#N)[C@H](C)C[C@H]3[C@@H]4C[C@H](F)C5=CC(=O)C=C[C@]5(C)[C@@]4(F)[C@@H](O)C[C@@]32C)s1` [Example 15, 6α,9α-Difluoro-11β-hydroxy-16α-methyl-17α-(5-methylthio-thiophene-2-carbonyl)oxy-3-oxo-androsta-1,4-diene-17β-carboxylic Acid Cyanomethyl Ester], for which the Emax at glucocorticoid receptor [1] is less than 35%. On glucocorticoid receptor [2], the EC50 was not above 0.1 nM.
For the compound `C[C@@H]1C[C@H]2[C@@H]3C[C@H](F)C4=CC(=O)C=C[C@]4(C)[C@@]3(F)[C@@H](O)C[C@]2(C)[C@@]1(OC(=O)c1ccc(C#N)cc1)C(=O)OCC#N` [Example 8, 17α-(4-Cyanobenzoyl)oxy-6α,9α-difluoro-11β-hydroxy-16α-methyl-3-oxo-androsta-1,4-diene-17β-carboxylic Acid Cyanomethyl Ester], at glucocorticoid receptor [1], the Emax was less than 35%. Besides, the EC50 at Progesterone Receptor was more than 100 nM; on glucocorticoid receptor [2], not above 0.1 nM.
Regarding `C[C@@H]1C[C@H]2[C@@H]3C[C@H](F)C4=CC(=O)CC[C@]4(C)[C@@]3(F)[C@@H](O)C[C@]2(C)[C@@]1(OC(=O)C1C(C)(C)C1(C)C)C(=O)OCC#N` [Example 18, 6α,9α-Difluoro-11β-hydroxy-16α-methyl-3-oxo-17α-(2,2,3,3-tetramethycyclopropylcarbonyl)oxy-androst-4-ene-17 b-carboxylic Acid Cyanomethyl Ester], at glucocorticoid receptor [1], the Emax was less than 35%. Moreover, the concentration for a half-maximal effect (EC50) on Progesterone Receptor is more than 100 nM.
Regarding `C[C@@H]1C[C@H]2[C@@H]3C[C@H](F)C4=CC(=O)C=C[C@]4(C)[C@@]3(F)[C@@H](O)C[C@]2(C)[C@@]1(OC(=O)C1CCCCC1)C(=O)OCC#N` [Example 5, 17α-(Cyclohexylcarbonyl)oxy-6α,9α-difluoro-11β-hydroxy-16α-methyl-3-oxo-androsta-1,4-diene-17β-carboxylic Acid cyanomethyl Ester], on glucocorticoid receptor [1], the Emax was less than 35%. In addition, the half-maximal effective concentration (EC50) on Progesterone Receptor is more than 100 nM.
`C[C@@H]1C[C@H]2[C@@H]3C[C@H](F)C4=CC(=O)C=C[C@]4(C)[C@@]3(F)[C@@H](O)C[C@]2(C)[C@@]1(OC(=O)c1cccc(SC(F)F)c1)C(=O)SCC#N` [Example 25, 6α,9α-Difluoro-17α-(3-(difluoromethylthio)benzoyl)oxy-11β-hydroxy-16α-methyl-3-oxo-androsta-1,4-diene-17β-carbothioic Acid S-cyanomethyl Ester]: at glucocorticoid receptor [1], the Emax is less than 35%. The EC50 on Progesterone Receptor is more than 100 nM.
In the case of `CC(C)c1nc(C(=O)O[C@]2(C(=O)OCC#N)[C@H](C)C[C@H]3[C@@H]4C[C@H](F)C5=CC(=O)C=C[C@]5(C)[C@@]4(F)[C@@H](O)C[C@@]32C)cs1` [Example 11, 6α,9α-Difluoro-11β-hydroxy-17α-(2-isopropyl-1,3-thiazole-4-carbonyl)oxy-16α-methyl-3-oxo-androsta-1,4-diene-17β-carboxylic Acid Cyanomethyl Ester], the Emax on glucocorticoid receptor [1] is less than 35%. In addition, the EC50 on Progesterone Receptor was more than 100 nM.
